Laboratory results: article PMC7368294 (Proceedings of the National Academy of Sciences of the …, 2020)

Target: T1, Btα1/Btα8/Btβ1 nAChR (Bombus terrestris, UniProt A0A9B0BGM1+A0A9B0F4H3+A0A9B2JDZ7)
T1 sequence (A0A9B0F4H3 44-615): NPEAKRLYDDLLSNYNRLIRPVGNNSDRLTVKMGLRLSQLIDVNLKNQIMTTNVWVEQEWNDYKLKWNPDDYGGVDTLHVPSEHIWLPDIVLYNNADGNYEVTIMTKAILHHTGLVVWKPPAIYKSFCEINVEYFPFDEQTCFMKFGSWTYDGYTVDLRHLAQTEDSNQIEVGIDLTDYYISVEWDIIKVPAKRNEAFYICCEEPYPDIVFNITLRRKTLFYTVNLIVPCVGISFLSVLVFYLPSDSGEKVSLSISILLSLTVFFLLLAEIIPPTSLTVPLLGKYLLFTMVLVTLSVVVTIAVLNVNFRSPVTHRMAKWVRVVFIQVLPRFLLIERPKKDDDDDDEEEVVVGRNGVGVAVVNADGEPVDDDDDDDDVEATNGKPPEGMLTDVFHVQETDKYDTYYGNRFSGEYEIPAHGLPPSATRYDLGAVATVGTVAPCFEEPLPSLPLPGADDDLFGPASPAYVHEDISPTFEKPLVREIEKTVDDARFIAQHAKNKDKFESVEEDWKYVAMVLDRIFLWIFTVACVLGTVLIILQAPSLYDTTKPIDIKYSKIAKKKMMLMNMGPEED
T1 sequence (A0A9B2JDZ7 22-535): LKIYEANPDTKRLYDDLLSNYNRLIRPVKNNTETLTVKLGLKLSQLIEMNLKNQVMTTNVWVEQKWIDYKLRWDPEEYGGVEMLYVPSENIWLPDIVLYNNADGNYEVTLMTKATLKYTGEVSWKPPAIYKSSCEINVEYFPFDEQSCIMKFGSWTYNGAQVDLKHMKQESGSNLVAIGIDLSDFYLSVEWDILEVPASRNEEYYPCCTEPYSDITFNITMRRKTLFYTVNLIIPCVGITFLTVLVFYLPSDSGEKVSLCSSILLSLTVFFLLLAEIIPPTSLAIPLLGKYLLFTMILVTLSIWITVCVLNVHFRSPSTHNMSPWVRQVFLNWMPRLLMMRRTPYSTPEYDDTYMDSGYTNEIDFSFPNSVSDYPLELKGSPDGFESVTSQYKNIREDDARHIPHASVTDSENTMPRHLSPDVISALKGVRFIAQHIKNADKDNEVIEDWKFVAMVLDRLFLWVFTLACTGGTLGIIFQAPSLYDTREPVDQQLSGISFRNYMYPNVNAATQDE
T1 sequence (A0A9B0BGM1 19-519): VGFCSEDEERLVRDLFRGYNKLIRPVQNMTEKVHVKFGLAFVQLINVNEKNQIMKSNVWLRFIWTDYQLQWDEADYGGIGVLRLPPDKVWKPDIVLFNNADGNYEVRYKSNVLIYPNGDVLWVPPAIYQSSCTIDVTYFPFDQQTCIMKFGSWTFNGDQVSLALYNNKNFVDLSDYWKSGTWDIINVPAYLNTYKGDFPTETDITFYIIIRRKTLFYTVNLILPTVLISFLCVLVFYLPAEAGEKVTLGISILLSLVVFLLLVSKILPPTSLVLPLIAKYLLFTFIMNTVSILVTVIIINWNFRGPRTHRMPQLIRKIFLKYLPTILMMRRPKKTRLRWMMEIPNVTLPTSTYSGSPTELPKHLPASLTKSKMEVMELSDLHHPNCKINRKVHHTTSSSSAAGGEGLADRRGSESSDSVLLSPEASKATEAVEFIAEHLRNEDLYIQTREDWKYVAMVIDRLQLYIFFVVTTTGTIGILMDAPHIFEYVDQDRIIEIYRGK
Assay: two-electrode voltage clamp of Xenopus oocytes, agonist concentration-response
Assay type: cell-based

SMILES	EC50 [nM]
N#C/N=C1\SCCN1Cc1ccc(Cl)nc1 [thiacloprid]	51.3
CN/C(=N\[N+](=O)[O-])NCc1cnc(Cl)s1 [clothianidin]	13.5
O=[N+]([O-])NC1=NCCN1Cc1ccc(Cl)nc1 [imidacloprid]	25.1
